Measurements: article PMC11844072, “Novel 5,6-dichlorobenzimidazole derivatives as dual BRAFWT and BRAFV600E inhibitors: design, synthesis, anti-cancer activity and molecular dynamics simulations” (BMC Chemistry, 2025)

What was measured:
Test in all cases: NCI 60 single concentration growth inhibition
Type in all cases: cell-based, human
A549/ATCC = conditions: Non-small cell lung cancer; for inhibition at 10 µM: Homo sapiens, read-out: GI%; for GI%: 10 μM
Outline: (§1)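 Single-dose screen: cells in RPMI 1640 with 5% FBS and 2 mM L-glutamine, pre-grown 24 h, then exposed to 10 µM compound for 48 h at 37 °C. Protein was measured by TCA fixation and sulforhodamine B staining at 515 nm, and percent growth was taken against time-zero and untreated wells.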

SN12C = conditions: Renal cancer; for inhibition at 10 µM: Homo sapiens, read-out: GI%; for GI%: 10 μM
Outline: as §1

NCI-H226 = conditions: NCI-H226, Non-small cell lung cancer; for inhibition at 10 µM: Homo sapiens, read-out: GI%; for GI%: 10 μM
Outline: as §1

MCF7 = conditions: MCF7, Breast cancer; for inhibition at 10 µM: Homo sapiens, read-out: GI%; for GI%: 10 μM
Outline: as §1

SF-539 = conditions: SF-539, CNS cancer; for inhibition at 10 µM: Homo sapiens, read-out: GI%; for GI%: 10 μM
Outline: as §1

SF-268 = conditions: SF-268, CNS cancer; for inhibition at 10 µM: Homo sapiens, read-out: GI%; for GI%: 10 μM
Outline: as §1

BT-549 = conditions: BT-549, Breast cancer; for inhibition at 10 µM: Homo sapiens, read-out: GI%; for GI%: 10 μM
Outline: as §1

PC-3 = conditions: PC-3, Prostate cancer; for inhibition at 10 µM: Homo sapiens, read-out: GI%; for GI%: 10 μM
Outline: as §1

A498 = conditions: A498, Renal cancer; for inhibition at 10 µM: Homo sapiens, read-out: GI%; for GI%: 10 μM
Outline: as §1

SK-MEL-28 = conditions: SK-MEL-28, Melanoma; for inhibition at 10 µM: Homo sapiens, read-out: GI%; for GI%: 10 μM
Outline: as §1

UO-31 = conditions: UO-31, Renal cancer, 10 μM
Outline: as §1

MALME-3M = conditions: Melanoma, 10 μM
Outline: as §1

SNB-75 = conditions: SNB-75, CNS cancer, 10 μM
Outline: as §1

IGROV1 = conditions: IGROV1, Ovarian cancer, 10 μM
Outline: as §1

NCI-H322M = conditions: Non-small cell lung cancer, 10 μM
Outline: as §1

| Molecule | inhibition at 10 µM (A549/ATCC) | inhibition at 10 µM (SN12C) | inhibition at 10 µM (NCI-H226) | inhibition at 10 µM (MCF7) | inhibition at 10 µM (SF-539) | inhibition at 10 µM (SF-268) | inhibition at 10 µM (BT-549) | inhibition at 10 µM (PC-3) | inhibition at 10 µM (A498) | inhibition at 10 µM (SK-MEL-28) | GI% (UO-31) | GI% (MALME-3M) | GI% (SNB-75) | GI% (IGROV1) | GI% (NCI-H322M) | other results |
| --- | --- | --- | --- | --- | --- | --- | --- | --- | --- | --- | --- | --- | --- | --- | --- | --- |
| COc1ccc(-c2nc3cc(Cl)c(Cl)cc3n2CC(=O)NN=Cc2ccc(O)c(OC)c2)cc1 [Compound 10l, 2-(5,6-Dichloro-2-(4-methoxyphenyl)-1H-benzo[d]imidazol-1-yl)-N'-(4-hydroxy-3-methoxybenzylidene)acetohydrazide] | 35.4% | 19.9% | 47.5% | 65.9% | 32.4% | 53.7% | 50.2% | 54.2% | 16.2% | 7.48% | – | – | – | – | – | – |
| COc1ccc(C=NNC(=O)Cn2c(-c3ccc(OC)cc3)nc3cc(Cl)c(Cl)cc32)cc1 [Compound 10d, 2-(5,6-Dichloro-2-(4-methoxyphenyl)-1H-benzo[d]imidazol-1-yl)-N'-(4-methoxybenzylidene)acetohydrazide] | 59.4% | 27.8% | 33.9% | 81.5% | 34.2% | 48.6% | 50.3% | 68.5% | 47.2% | 33.5% | – | – | – | – | – | – |
| COc1ccc(-c2nc3cc(Cl)c(Cl)cc3n2CC(=O)NN=Cc2ccc(OC)c(O)c2)cc1 [Compound 10k, 2-(5,6-Dichloro-2-(4-methoxyphenyl)-1H-benzo[d]imidazol-1-yl)-N'-(3-hydroxy-4-methoxybenzylidene)acetohydrazide] | 49.9% | 16.3% | 48.1% | 68% | 29.1% | 45.6% | 31.7% | 56.6% | 29.7% | 17.3% | 55.02% | 23.45% | 33.65% | 10.22% | 8.94% | – |
| 3-(4-((2-(2-(5,6-Dichloro-2-(4-methoxyphenyl)-1H-benzo[d]imidazol-1-yl)acetyl)hydrazono)methyl)phenoxy)propanoic acid [Compound 10i] | – | – | – | – | – | – | – | – | – | – | 25.68% | – (GI% < 5%) | 8.33% | – (GI% < 5%) | – (GI% < 5%) | GI% (A549/ATCC): – (GI% < 5%); GI% (SN12C): – (GI% < 5%); GI% (NCI-H226): 23.02%; GI% (MCF7): 28.47%; GI% (SF-539): – (GI% < 5%); GI% (SF-268): – (GI% < 5%); GI% (BT-549): 11.38%; GI% (PC-3): 19.27%; GI% (A498): – (GI% < 5%); GI% (SK-MEL-28): – (GI% < 5%) |
| COc1ccc(-c2nc3cc(Cl)c(Cl)cc3n2CC(=O)NN=Cc2ccc(O)cc2)cc1 [Compound 10b, 2-(5,6-Dichloro-2-(4-methoxyphenyl)-1H-benzo[d]imidazol-1-yl)-N'-(4-hydroxybenzylidene)acetohydrazide] | 57.2% | 18% | 35.5% | 74.2% | 32.5% | 52.5% | 65.6% | 40.7% | 25.9% | 26.4% | – | – | – | – | – | – |
| COc1ccc(-c2nc3cc(Cl)c(Cl)cc3n2CC(=O)NN=Cc2ccc(OCC(=O)O)cc2)cc1 [Compound 10f, 2-(4-((2-(2-(5,6-Dichloro-2-(4-methoxyphenyl)-1H-benzo[d]imidazol-1-yl)acetyl)hydrazono)methyl)phenoxy)acetic acid] | < 5% | < 5% | < 5% | 18.9% | 10.8% | < 5% | < 5% | 8.65% | < 5% | < 5% | – | – | – | – | – | – |
| CCOC(=O)C(C)Oc1ccc(C=NNC(=O)Cn2c(-c3ccc(OC)cc3)nc3cc(Cl)c(Cl)cc32)cc1 (stereo not shown) [Compound 10j, Ethyl-2-(4-((2-(2-(5,6-dichloro-2-(4-methoxyphenyl)-1H-benzo[d]imidazol-1-yl)acetyl) hydrazono)methyl)phenoxy)propanoate] | < 5% | 51.9% | 7.33% | 39% | < 5% | 14.3% | 11.8% | 38.5% | < 5% | < 5% | 25.57% | – (GI% < 5%) | 5.72% | 25.42% | – (GI% < 5%) | – |
| 2-(5-((2-(2-(5,6-Dichloro-2-(4-methoxyphenyl)-1H-benzo[d]imidazol-1-yl)acetyl)hydrazono)methyl)-2-methoxyphenoxy)acetic acid [Compound 10n] | – | – | – | – | – | – | – | – | – | – | 13.00% | – (GI% < 5%) | – (GI% < 5%) | – (GI% < 5%) | – (GI% < 5%) | GI% (A549/ATCC): – (GI% < 5%); GI% (SN12C): 5.05%; GI% (NCI-H226): 10.07%; GI% (MCF7): 14.21%; GI% (SF-539): – (GI% < 5%); GI% (SF-268): – (GI% < 5%); GI% (BT-549): – (GI% < 5%); GI% (PC-3): 10.81%; GI% (A498): – (GI% < 5%); GI% (SK-MEL-28): – (GI% < 5%) |
| 2-(4-((2-(2-(5,6-Dichloro-2-(4-methoxyphenyl)-1H-benzo[d]imidazol-1-yl)acetyl)hydrazono)methyl) -2-methoxyphenoxy)acetic acid [Compound 10m] | – | – | – | – | – | – | – | – | – | – | 8.63% | – (GI% < 5%) | – (GI% < 5%) | – (GI% < 5%) | – (GI% < 5%) | GI% (A549/ATCC): – (GI% < 5%); GI% (SN12C): 5.24%; GI% (NCI-H226): 11.67%; GI% (MCF7): 9.09%; GI% (SF-539): – (GI% < 5%); GI% (SF-268): – (GI% < 5%); GI% (BT-549): – (GI% < 5%); GI% (PC-3): – (GI% < 5%); GI% (A498): – (GI% < 5%); GI% (SK-MEL-28): – (GI% < 5%) |
| COc1ccc(-c2nc3cc(Cl)c(Cl)cc3n2CC(=O)NN=Cc2cccc(OC)c2)cc1 [Compound 10c, 2-(5,6-Dichloro-2-(4-methoxyphenyl)-1H-benzo[d]imidazol-1-yl)-N'-(3-methoxybenzylidene)acetohydrazide] | 36.1% | 9.21% | 17.1% | 56.6% | 24.4% | 48.3% | 52.9% | 29.5% | 22.7% | 20.5% | – | – | – | – | – | – |
| COC(=O)COc1cccc(C=NNC(=O)Cn2c(-c3ccc(OC)cc3)nc3cc(Cl)c(Cl)cc32)c1 [Compound 10g, Methyl-2-(3-((2-(2-(5,6-dichloro-2-(4-methoxyphenyl)-1H-benzo[d]imidazol-1-yl)acetyl)hydrazono)methyl)phenoxy)acetate] | < 5% | 40.7% | 8% | 31.9% | 26.5% | < 5% | < 5% | 36.9% | < 5% | < 5% | – | – | – | – | – | – |
| COc1ccc(-c2nc3cc(Cl)c(Cl)cc3n2CC(=O)NN=Cc2cccc(O)c2)cc1 [Compound 10a, 2-(5,6-Dichloro-2-(4-methoxyphenyl)-1H-benzo[d]imidazol-1-yl)-N'-(3-hydroxybenzylidene)acetohydrazide] | 62.5% | 31.3% | 43.7% | 80.6% | 36.5% | 51.5% | 47.8% | 57.8% | 48.9% | 39.3% | – | – | – | – | – | – |
